Experimental data: the NIST ThermoML archive (doi:10.1021/je060271a)
Numbers after ± are expanded uncertainties.

Details: 323.14 K, Liquid, Vibrating tube method

CCCCCCC(=O)OCC(COC(=O)CCCCCC)(COC(=O)CCCCCC)COC(=O)CCCCCC [pentaerythritol tetraheptanoate]
Details	mass density [kg/m3]
18264 kPa	967.6 ± 1.2
18279 kPa	967.6 ± 1.2
18292 kPa	967.7 ± 1.2
18304 kPa	967.6 ± 1.2
18320 kPa	967.6 ± 1.2
18332 kPa	967.6 ± 1.2
18347 kPa	967.6 ± 1.2
18360 kPa	967.7 ± 1.2
18373 kPa	967.7 ± 1.2
18385 kPa	967.8 ± 1.2
18401 kPa	967.7 ± 1.2
18413 kPa	967.8 ± 1.2
18426 kPa	967.6 ± 1.2
18442 kPa	967.8 ± 1.2
18454 kPa	967.7 ± 1.2
18469 kPa	967.7 ± 1.2
18482 kPa	967.7 ± 1.2
18495 kPa	967.7 ± 1.2
18511 kPa	967.7 ± 1.2
18920 kPa	967.9 ± 1.2
18933 kPa	968 ± 1.2
18964 kPa	968.1 ± 1.2
19110 kPa	968.3 ± 1.2
19518 kPa	968.3 ± 1.2
19532 kPa	968.3 ± 1.2
19550 kPa	968.4 ± 1.2
19962 kPa	968.7 ± 1.2
20010 kPa	968.7 ± 1.2
20615 kPa	969.1 ± 1.2
20951 kPa	969.3 ± 1.2
20968 kPa	969.2 ± 1.2
21002 kPa	969.4 ± 1.2
21114 kPa	969.2 ± 1.2
21149 kPa	969.4 ± 1.2
21166 kPa	969.4 ± 1.2
21187 kPa	969.4 ± 1.2
21204 kPa	969.5 ± 1.2
21222 kPa	969.3 ± 1.2
21243 kPa	969.4 ± 1.2
21261 kPa	969.4 ± 1.2
21812 kPa	969.9 ± 1.2
21889 kPa	969.8 ± 1.2
21912 kPa	969.9 ± 1.2
22010 kPa	969.9 ± 1.2
22028 kPa	970 ± 1.2
22051 kPa	969.9 ± 1.2
22255 kPa	970 ± 1.2
22294 kPa	970.1 ± 1.2
22673 kPa	970.3 ± 1.2
22693 kPa	970.2 ± 1.2
22738 kPa	970.5 ± 1.2
22934 kPa	970.5 ± 1.2
22955 kPa	970.5 ± 1.2
22976 kPa	970.5 ± 1.2
23001 kPa	970.4 ± 1.2
23022 kPa	970.6 ± 1.2
23064 kPa	970.5 ± 1.2
23111 kPa	970.6 ± 1.2
23132 kPa	970.6 ± 1.2
23157 kPa	970.6 ± 1.2
23178 kPa	970.5 ± 1.2
23200 kPa	970.6 ± 1.2
23225 kPa	970.5 ± 1.2
23246 kPa	970.5 ± 1.2
23268 kPa	970.7 ± 1.2
23294 kPa	970.7 ± 1.2
23315 kPa	970.7 ± 1.2
23358 kPa	970.7 ± 1.2
23384 kPa	970.8 ± 1.2
23431 kPa	970.8 ± 1.2
23453 kPa	970.8 ± 1.2
23474 kPa	970.7 ± 1.2
23496 kPa	970.9 ± 1.2
23522 kPa	970.8 ± 1.2
23544 kPa	970.8 ± 1.2
23566 kPa	970.8 ± 1.2
23592 kPa	970.8 ± 1.2
23614 kPa	970.8 ± 1.2
23755 kPa	971 ± 1.2
23777 kPa	970.9 ± 1.2
23805 kPa	971.1 ± 1.2
23827 kPa	971 ± 1.2
23853 kPa	970.9 ± 1.2
23875 kPa	971 ± 1.2
23898 kPa	971.1 ± 1.2
23921 kPa	971 ± 1.2
23948 kPa	971 ± 1.2
24439 kPa	971.4 ± 1.2
24490 kPa	971.3 ± 1.2
24592 kPa	971.5 ± 1.2
24645 kPa	971.6 ± 1.2
24693 kPa	971.5 ± 1.2
24722 kPa	971.5 ± 1.2
24746 kPa	971.5 ± 1.2
24799 kPa	971.6 ± 1.2
24824 kPa	971.6 ± 1.2
24848 kPa	971.6 ± 1.2
24874 kPa	971.5 ± 1.2
24903 kPa	971.6 ± 1.2
24928 kPa	971.6 ± 1.2
24957 kPa	971.7 ± 1.2
24981 kPa	971.5 ± 1.2
25006 kPa	971.7 ± 1.2
25031 kPa	971.8 ± 1.2
25061 kPa	971.7 ± 1.2
25387 kPa	971.9 ± 1.2
25413 kPa	972 ± 1.2
25633 kPa	972.1 ± 1.2
25717 kPa	972 ± 1.2
25828 kPa	972 ± 1.2
25860 kPa	972.3 ± 1.2
25888 kPa	972.3 ± 1.2
